In US11292785B2, “Nitrogen-containing benzoheterocycle compound comprising carboxylic acid group, preparation method and use thereof” (Sichuan Kelun-Biotech Biopharmaceutical Co., Ltd., priority 2018, dated 2022):
Like-named read-outs stand apart in the source and are kept apart here.

What was measured:
CYP 1A2 = target: T1, CYP 1A2 (Homo sapiens, UniProt P05177); assay: CYP 1A2 inhibition test in human liver microsomes (probe phenacetin); format: in vitro ADME; details: probe substrate phenacetin, read-out: CYP 1A2 (μM), half inhibition concentration (IC50)
T1 construct: from tissue; host or cells: human liver microsomes
T1 sequence (P05177 1-516): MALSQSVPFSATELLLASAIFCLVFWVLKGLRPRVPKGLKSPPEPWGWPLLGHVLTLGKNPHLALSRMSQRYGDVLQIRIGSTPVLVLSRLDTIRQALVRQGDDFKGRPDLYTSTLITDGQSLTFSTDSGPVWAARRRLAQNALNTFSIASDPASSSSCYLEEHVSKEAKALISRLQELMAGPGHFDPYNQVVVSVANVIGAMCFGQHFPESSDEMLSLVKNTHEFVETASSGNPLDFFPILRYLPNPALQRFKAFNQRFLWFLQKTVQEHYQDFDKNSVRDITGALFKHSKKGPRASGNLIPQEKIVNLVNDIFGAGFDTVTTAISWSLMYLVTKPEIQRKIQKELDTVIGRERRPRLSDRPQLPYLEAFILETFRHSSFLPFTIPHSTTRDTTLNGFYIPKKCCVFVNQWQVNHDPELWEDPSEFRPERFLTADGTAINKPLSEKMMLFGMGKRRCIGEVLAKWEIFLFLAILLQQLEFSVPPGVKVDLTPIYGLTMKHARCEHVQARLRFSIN
Description: Probe substrate: Phenacetin, National Institute of Control of Pharmaceutical & Biological Products, 100095.
Positive control: alpha-naphthoflavane, ACras, A0331533.
(§1) A probe substrate (50 μl), PBS (49 μl) and a test compound in different concentrations (0.05 μM, 0.15 μM, 0.5 μM, 1.5 μM, 5 μM, 15 μM, 50 μM) or a positive control (1 μl) were mixed with human liver microsomes (HLM, 50 μl) to give 150 μl of a mixed liquid, which was subjected to pre-incubation (37° C.) for 5 min, then added with NADPH (50 μl) and incubated for 30 min. The reaction was quenched by adding 200 μl of glacial acetonitrile. An appropriate volume of an internal standard substance was added, and after vortex treatment and centrifugation, the supernatant was obtained.
(§2) The detection was performed by using LC-MS/MS. The mass spectrometer was API 5500, the liquid chromatograph was Waters ACQUITY UPLC I-CLASS system. The chromatographic column was Hypersil GOLD C18, 1.9 μm particle size, 50×2.1 mm; mobile phase A: water+0.1% formic acid, mobile phase B: acetonitrile; flow rate: 0.4 ml/min, column temperature: 40° C. The ion source as used was ESI source positive ion mode, and the scanning mode was Multiple Reaction Monitoring (MRM).
(§3) By using solvent group (DMSO) as negative control, the concentrations of the main metabolite converted from the probe substrate in the case of different concentrations of the test compound were measured, to determine the half inhibition concentration of the compound (IC50).

CCR2 = target: T2, CCR2 (Homo sapiens, UniProt P41597); assay: Inhibition test on activity of CCR2 in cells (calcium fluorescence, MCP1 stimulation); format: cell-based; details: HEK293 cells stably expressing CCR2, ligand MCP1
T2 construct: host or cells: HEK293
T2 sequence (P41597 whole entry): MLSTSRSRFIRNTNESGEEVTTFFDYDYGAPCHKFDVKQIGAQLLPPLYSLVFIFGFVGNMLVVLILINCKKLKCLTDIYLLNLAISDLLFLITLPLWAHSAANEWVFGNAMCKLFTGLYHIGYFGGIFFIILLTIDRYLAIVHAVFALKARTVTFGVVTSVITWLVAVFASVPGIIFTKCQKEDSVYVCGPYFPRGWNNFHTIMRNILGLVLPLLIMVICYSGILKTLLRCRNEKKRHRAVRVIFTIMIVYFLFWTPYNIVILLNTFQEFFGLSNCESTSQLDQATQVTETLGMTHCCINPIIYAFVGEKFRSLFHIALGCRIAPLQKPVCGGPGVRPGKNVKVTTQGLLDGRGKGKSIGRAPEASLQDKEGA
Source text: (§4) HEK293 cells that stably express CCR2 and CCR5 receptor proteins were first labeled with calcium ion sensitive fluorescent probe and then stimulated with corresponding ligands (MCP1 and RANTES). After the stimulation, the receptors were activated to trigger the release of the calcium ions from endoplasmic reticulum to cytoplasm. And once the calcium ions were captured by the fluorescent probe, the fluorescent signal could be triggered. The inhibition of compounds on CCR2 and CCR5 can be evaluated by detecting the intensity of the fluorescent signal.
(§5) To each well of the 384-well plates, 2×10^4 HEK293 cells were added and cultured overnight. After being labelled by fluorescent probe, MCP1 and RANTES in different concentrations were added, and the fluorescent signal was read. The fluorescence signal was plotted in relation to the ligand concentration, and according to the four-parameter model, IC50 values were calculated as the ligand concentrations of the CCR2 and CCR5 for the subsequent detection of the compounds.
(§6) By referring to the above results, cells were incubated with the test compound in different concentrations (5000 nM, 1250 nM, 313 nM, 78 nM, 20 nM, 4.8828 nM, 1.2207 nM, 0.3052 nM, 0.0763 nM, and 0.0191 nM), and after MCP1 and RANTES were added thereto, the fluorescent signal was read. The inhibition activity of each concentration group was calculated, wherein the solvent group (not containing the compound) was as the negative control, and the Buffer group (not containing any ligand) was as the blank control: Relative inhibition activity percentage=1−(fluorescent signal of each concentration group-fluorescent signal of the blank group)/(fluorescent signal of the solvent group-fluorescent signal of the blank group)*100%.
(§7) The inhibition activity percentage of each concentration group was plotted in relation to the concentration of the compound, and the curve was fitted according to the four-parameter model, IC50 values were calculated: y=min+(max−min)/(1+(x/IC50)^(−Hillslope))
(§8) wherein y is the relative inhibition activity percentage; max, min are the maximum and minimum values of the fitted curve, respectively; x is the concentration of the compound, and Hillslope is the slope of the curve.

CYP 2D6 = target: T3, CYP 2D6 (Homo sapiens, UniProt P10635); assay: CYP 2D6 inhibition test in human liver microsomes (probe dextromethorphan); format: in vitro ADME; details: probe substrate dextromethorphan, read-out: CYP 2D6 (μM), half inhibition concentration (IC50)
T3 construct: from tissue; host or cells: human liver microsomes
T3 sequence (P10635 whole entry): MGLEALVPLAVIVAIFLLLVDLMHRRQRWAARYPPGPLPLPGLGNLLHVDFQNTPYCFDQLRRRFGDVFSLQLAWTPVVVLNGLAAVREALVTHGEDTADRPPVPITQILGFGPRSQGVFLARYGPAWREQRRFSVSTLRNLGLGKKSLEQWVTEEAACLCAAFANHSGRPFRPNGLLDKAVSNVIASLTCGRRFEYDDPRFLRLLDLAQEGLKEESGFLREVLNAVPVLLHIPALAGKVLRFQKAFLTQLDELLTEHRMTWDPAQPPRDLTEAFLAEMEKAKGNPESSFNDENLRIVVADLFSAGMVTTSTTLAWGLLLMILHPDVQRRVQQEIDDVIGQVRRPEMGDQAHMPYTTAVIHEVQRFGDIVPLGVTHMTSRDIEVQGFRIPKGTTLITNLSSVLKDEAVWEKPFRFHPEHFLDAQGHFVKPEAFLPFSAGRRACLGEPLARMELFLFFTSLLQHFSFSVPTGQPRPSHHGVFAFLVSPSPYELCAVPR
Description: Probe substrate: Dextromethorpha, Beijing Jinbao, 100201.
Positive control: Quinidine, Damas-bata, P1176507.
as §1, §2, §3

CCR5 = target: T4, CCR5 (Homo sapiens, UniProt P51681); assay: Inhibition test on activity of CCR5 in cells (calcium fluorescence, RANTES stimulation); format: cell-based; details: HEK293 cells stably expressing CCR5, ligand RANTES
T4 construct: host or cells: HEK293
T4 sequence (P51681 whole entry): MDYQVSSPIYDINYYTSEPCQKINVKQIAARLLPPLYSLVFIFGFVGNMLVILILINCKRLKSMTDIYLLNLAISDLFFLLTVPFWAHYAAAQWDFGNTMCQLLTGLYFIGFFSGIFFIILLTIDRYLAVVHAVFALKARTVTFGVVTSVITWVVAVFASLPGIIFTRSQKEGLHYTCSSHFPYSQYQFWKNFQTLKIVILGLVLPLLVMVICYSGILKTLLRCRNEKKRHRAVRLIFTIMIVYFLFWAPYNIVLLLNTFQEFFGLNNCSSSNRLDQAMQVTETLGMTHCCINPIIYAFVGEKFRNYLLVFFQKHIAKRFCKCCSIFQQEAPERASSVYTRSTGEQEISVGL
Source text: as §4, §5, §6, §7, §8

CYP 3A4T = target: T5, CYP 3A4T (Homo sapiens, UniProt P08684); assay: CYP 3A4T inhibition test in human liver microsomes (probe testosterone); format: in vitro ADME; details: probe substrate testosterone, read-out: CYP 3A4T (μM), half inhibition concentration (IC50)
T5 construct: from tissue; host or cells: human liver microsomes
T5 sequence (P08684 whole entry): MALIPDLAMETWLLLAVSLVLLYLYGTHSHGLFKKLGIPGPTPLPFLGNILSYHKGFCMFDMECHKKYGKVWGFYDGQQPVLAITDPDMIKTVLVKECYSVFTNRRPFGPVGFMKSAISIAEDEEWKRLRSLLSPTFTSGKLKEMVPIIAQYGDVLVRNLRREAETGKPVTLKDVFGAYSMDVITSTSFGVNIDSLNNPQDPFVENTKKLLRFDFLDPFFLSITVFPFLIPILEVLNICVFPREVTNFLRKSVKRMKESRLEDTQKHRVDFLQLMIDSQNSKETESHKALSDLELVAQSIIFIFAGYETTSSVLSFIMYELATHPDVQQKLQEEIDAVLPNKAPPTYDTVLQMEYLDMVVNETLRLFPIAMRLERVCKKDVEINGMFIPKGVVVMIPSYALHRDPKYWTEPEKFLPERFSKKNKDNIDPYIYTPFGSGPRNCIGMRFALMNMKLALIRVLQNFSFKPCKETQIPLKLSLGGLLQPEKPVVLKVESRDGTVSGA
Description: Probe substrate: Testosterone, European Pharmacopoeia (EP) Reference Standard, Sigma-Aldrich, T0100000.
Positive control: Ketoconazole, Dingdang Chemical, DTYC 0516-17.
as §1, §2, §3

[1] = target: T6, hERG potassium ion channels (Homo sapiens, UniProt Q12809); assay: hERG inhibition test, manual patch clamp, HEK293 cells over-expressing hERG; format: cell-based; details: tested at 1 μM and 10 μM
T6 construct: expressed in transfected cells; host or cells: HEK293
T6 sequence (Q12809 whole entry): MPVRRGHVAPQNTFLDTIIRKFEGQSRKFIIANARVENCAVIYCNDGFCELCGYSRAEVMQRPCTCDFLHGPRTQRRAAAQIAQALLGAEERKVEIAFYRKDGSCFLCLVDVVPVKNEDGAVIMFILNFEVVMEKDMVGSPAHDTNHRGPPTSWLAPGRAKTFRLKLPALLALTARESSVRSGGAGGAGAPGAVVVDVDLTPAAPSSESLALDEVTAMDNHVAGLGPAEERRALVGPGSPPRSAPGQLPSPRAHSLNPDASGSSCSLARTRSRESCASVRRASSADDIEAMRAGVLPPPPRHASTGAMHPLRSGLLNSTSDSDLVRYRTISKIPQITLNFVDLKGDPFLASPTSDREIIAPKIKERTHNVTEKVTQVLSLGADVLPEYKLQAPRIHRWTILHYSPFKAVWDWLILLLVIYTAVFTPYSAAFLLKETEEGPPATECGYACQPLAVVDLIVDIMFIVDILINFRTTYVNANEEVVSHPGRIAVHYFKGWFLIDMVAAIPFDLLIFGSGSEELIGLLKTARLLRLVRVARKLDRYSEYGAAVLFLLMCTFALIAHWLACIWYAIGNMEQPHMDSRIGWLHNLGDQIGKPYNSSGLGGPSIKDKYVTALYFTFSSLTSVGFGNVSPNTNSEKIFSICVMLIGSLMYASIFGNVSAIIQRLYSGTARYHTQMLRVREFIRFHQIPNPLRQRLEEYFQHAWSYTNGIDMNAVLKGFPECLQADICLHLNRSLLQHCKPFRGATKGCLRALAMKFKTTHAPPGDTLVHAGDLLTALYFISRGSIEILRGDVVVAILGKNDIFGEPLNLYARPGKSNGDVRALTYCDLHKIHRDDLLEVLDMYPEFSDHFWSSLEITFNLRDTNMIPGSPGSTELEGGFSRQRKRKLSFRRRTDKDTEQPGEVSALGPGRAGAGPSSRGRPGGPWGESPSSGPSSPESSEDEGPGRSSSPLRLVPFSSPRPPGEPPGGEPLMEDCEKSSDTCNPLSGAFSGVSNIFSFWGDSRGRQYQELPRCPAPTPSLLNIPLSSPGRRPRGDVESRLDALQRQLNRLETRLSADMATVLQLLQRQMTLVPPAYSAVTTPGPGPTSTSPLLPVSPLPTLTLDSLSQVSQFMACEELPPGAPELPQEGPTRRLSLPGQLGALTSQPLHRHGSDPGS
Description: Different concentrations (1 μM and 10 μM) of the test compound and 30 μM positive control Quinidine were formulated. HEK293 cells over-expressing hERG potassium ion channels were cultured in 5% CO2 incubator at 37° C. When the density of the cells reaches 80% of the Petri dish, the cells was washed with phosphate buffer solution (PBS), followed by digestion with Trypsin/EDTA for 2-3 minutes. The digestion was terminated by adding cell culture medium, then the solution was transferred and centrifuged to remove the supernatant, and added with cell culture medium (DMEM, 15% fetal bovine serum and 1% 100×Penicillin-Streptomycin). After uniformly mixing, the cells were dripped onto a circular slide and cultured in a Petri dish to obtain the test cells.
Channel current was recorded by applying electrophysiological manual patch clamp in a whole-cell recording mode: extracellular fluid was perfused until the current was stable, after the peak value of the tail current (control current value) was recorded, the extracellular fluid containing different concentrations of the test compound was perfused, continuously recording was conducted until the inhibition effect of the medicine on the hERG current reach stable, and the peak value of the tail current (current value after drug administration) was recorded.

CYP 3A4M = target: T7, CYP 3A4M (Homo sapiens, UniProt P08684); assay: CYP 3A4M inhibition test in human liver microsomes (probe midazolam); format: in vitro ADME; details: probe substrate midazolam, read-out: CYP 3A4M (μM), half inhibition concentration (IC50)
T7 construct: from tissue; host or cells: human liver microsomes
T7 sequence (P08684 whole entry): as the sequence (P08684 whole entry) above
Description: Probe substrate: Midazolam, National Institute of Control of Pharmaceutical & Biological Products, 171265.
Positive control: Ketoconazole, purchased from Dingdang Chemical, DTYC 0516-17.
as §1, §2, §3

[2] = Rat pharmacokinetic (PK) studies, plasma and liver; format: in vivo; details: male SD rats, p.o. 5 mg/kg; for Kp: male, SD, liver relative to plasma, 5 mg/kg; for Kp / AUC(0-t) / Cmax / bioavailability / half-life: rat, po
Description: The test compound was administered intragastrically (p.o.) to male SD rats at a dose of 5 mg/kg. The solvent system was 0.5% MC during the p.o. administration. After p.o. administration, blood was collected for PK studies at 5 min, 15 min, 30 min, 1 h, 2 h, 4 h, 6 h, 8 h, and 24 h. After p.o. administration, liver tissues were collected at 15 min, 1 h, 4 h, 8 h and 24 h, and the liver tissue sample, after being subjected to protein precipitation treatment, was analyzed by a LC-MS/MS. The mass spectrometer was API 5500, and the liquid chromatograph was Waters ACQUITY I CLASS system: chromatographic column: Agela ASB C18 column (2.1 mm×50 mm, 1.9 μm); mobile phase A: water+0.1% formic acid, mobile phase B: acetonitrile; flow rate: 0.4 mL/min, column temperature: 40° C. The ion source as used was ESI source positive ion mode, and the scanning mode was Multiple Reaction Monitoring (MRM).

**Q.** What does the source list for `CCCCOCCOc1ccc(-c2ccc3c(c2)/C=C(/C(=O)Nc2ccc([S@@+]([O-])Cc4cncn4CCC)cc2)CCCN3CC(C)(C)C(=O)O)cc1` [Compound 1, (S,E)-3-(8-(4-(2-butoxyethoxy)phenyl)-5-((4-(((1-propyl-1H-imidazol-5-yl)methyl)sulfinyl)phenyl)carbamoyl)-3,4-dihydrobenzo[b]azacyclooctatetraen-1(2H)-yl)-2,2-dimethylpropanoic acid]?
**A.** IC50 (CYP 1A2): > 10 µM; IC50 (CCR2): 0.74 nM; IC50 (CYP 2D6): > 10 µM; IC50 (CCR5): 0.33 nM

**Q.** For `CCCCOCCOc1ccc(-c2ccc3c(c2)/C=C(/C(=O)Nc2ccc([S@+]([O-])Cc4c(C)ncn4CCC)cc2)CCCN3CC(C)(C)C(=O)O)cc1` [Compound 4], which IC50 (CYP 3A4T) is on record?
**A.** 48.3 µM

**Q.** And the IC50 (CYP 1A2)?
**A.** > 10 µM

**Q.** What about the IC50 (CCR2) of the same compound?
**A.** 6.12 nM

**Q.** And the IC50 (CYP 2D6)?
**A.** > 10 µM

**Q.** What about the IC50 (CCR5) of the same compound?
**A.** 2.82 nM

**Q.** What about the IC50 [1] of the same compound?
**A.** > 10 µM

**Q.** And the IC50 (CYP 3A4M)?
**A.** 15.3 µM

**Q.** For `CCCCOCCOc1ccc(-c2ccc3c(c2)/C=C(/C(=O)Nc2ccc([S@@+]([O-])Cc4c(C)ncn4CCC)cc2)CCCN3CC(C)(C)C(=O)O)cc1` [Compound 3], which AUClast ([2]; liver) is on record?
**A.** 386938 ± 30242 ng·h/g

**Q.** And the Kp ([2]; AUClast liver vs plasma, read-out: exposure in the liver relative to that in the plasma)?
**A.** ~2340

**Q.** What about the Kp ([2]; Cmax liver vs plasma, read-out: drug concentration in the liver relative to that in the plasma) of the same compound?
**A.** ~530

**Q.** And the AUC(0-t) ([2]; blood plasma)?
**A.** 165 ± 36 ng·h/mL

**Q.** What about the Cmax ([2]; blood plasma) of the same compound?
**A.** 49.7 ± 10.6 ng/mL

**Q.** What about the bioavailability ([2]; blood plasma) of the same compound?
**A.** 20.9 ± 4.5%

**Q.** What about the half-life ([2]; blood plasma) of the same compound?
**A.** 1.93 ± 0.37 h

**Q.** What about the Cmax ([2]; liver) of the same compound?
**A.** 26600 ± 200 ng/g

**Q.** What about the half-life ([2]; liver) of the same compound?
**A.** 7.2 ± 0.5 h

**Q.** And the IC50 (CYP 3A4T)?
**A.** 32.3 µM

**Q.** What about the IC50 (CYP 1A2) of the same compound?
**A.** > 10 µM

**Q.** What about the IC50 (CCR2) of the same compound?
**A.** 0.81 nM

**Q.** And the IC50 (CYP 2D6)?
**A.** > 10 µM

**Q.** What about the IC50 (CCR5) of the same compound?
**A.** 1.48 nM

**Q.** What about the IC50 [1] of the same compound?
**A.** > 10 µM

**Q.** What about the IC50 (CYP 3A4M) of the same compound?
**A.** 13.3 µM

**Q.** With `CCCCOCCOc1ccc(-c2ccc3c(c2)/C=C(/C(=O)Nc2ccc([S@@+]([O-])Cc4cncn4CCC)cc2)CCCN3CC(C)C)cc1` [Cenicriviroc, reference compound] as the compound, how does the AUClast ([2]; liver) read?
**A.** 6033 ± 2193 ng·h/g

**Q.** What about the AUC(0-t) ([2]; blood plasma) of the same compound?
**A.** 6330 ± 3440 ng·h/mL

**Q.** What about the Cmax ([2]; blood plasma) of the same compound?
**A.** 746 ± 428 ng/mL

**Q.** And the bioavailability ([2]; blood plasma)?
**A.** 10.8 ± 3.5%

**Q.** And the half-life ([2]; blood plasma)?
**A.** 4.33 ± 0.87 h

**Q.** What about the Cmax ([2]; liver) of the same compound?
**A.** 688 ± 229 ng/g

**Q.** And the half-life ([2]; liver)?
**A.** 3.93 ± 1.88 h

**Q.** What about the IC50 (CYP 3A4T) of the same compound?
**A.** 12.7 µM

**Q.** What about the IC50 (CYP 3A4M) of the same compound?
**A.** 3.43 µM

**Q.** Which results are given for `CCCCOCCOc1ccc(-c2ccc3c(c2)/C=C(/C(=O)Nc2ccc([S+]([O-])Cc4c(C)ncn4CCC)cc2)CCCN3CC(C)(C)C(=O)O)cc1` (stereo not shown) [Compound 2, (E)-3-(8-(4-(2-butoxyethoxy)phenyl)-5-((4-(((4-methyl-1-propyl-1H-imidazol-5-yl)methyl)sulfinyl)phenyl)carbamoyl)-3,4-dihydrobenzo[b]azacyclooctatetraen-1(2H)-yl)-2,2-dimethylpropanoic acid]?
**A.** IC50 (CYP 3A4T): 62.2 µM; IC50 (CYP 1A2): > 10 µM; IC50 (CCR2): 6.38 nM; IC50 (CYP 2D6): > 10 µM; IC50 (CCR5): 3.18 nM; IC50 [1]: > 10 µM; IC50 (CYP 3A4M): 27.8 µM
